Where “and” joins values, the source holds several entries; their conditions need not be identical. Equal values may be shown once.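 48-hour exposure; five concentrations; linearly interpolated endpoints. The concentration for 50% growth inhibition is given as GI50. TGI: concentration producing complete growth inhibition.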 Where a SMILES comes first, the peptide text is derived from it. [ ]: non-standard residue; d: D form. Orn = NCCC[CH](N)C(=O)O
Legend:
Assay in all cases: NCI anticancer screen, dose series, 48 h
OVCAR-8 ovarian = system: OVCAR-8 ovarian
M14 melanoma = system: M14 melanoma
SNB-19 CNS = system: SNB-19 CNS
SF-268 CNS = system: SF-268 CNS
IGROV1 ovarian = system: IGROV1 ovarian
DLD-1 colon = system: DLD-1 colon
SNB-78 CNS = system: SNB-78 CNS
NCI-H23 lung = system: NCI-H23 lung
SNB-75 CNS = system: SNB-75 CNS
DU-145 prostate = system: DU-145 prostate

SMILES | TGI (OVCAR-8 ovarian) | TGI (M14 melanoma) | TGI (SNB-19 CNS) | TGI (SF-268 CNS) | TGI (IGROV1 ovarian) | TGI (DLD-1 colon) [µM] | TGI (SNB-78 CNS) [µM] | TGI (NCI-H23 lung) | TGI (SNB-75 CNS) | GI50 (OVCAR-8 ovarian) | GI50 (M14 melanoma) [µM] | GI50 (SNB-19 CNS) [µM] | GI50 (SF-268 CNS) | GI50 (DU-145 prostate) | TGI (DU-145 prostate) | GI50 (IGROV1 ovarian) | GI50 (NCI-H23 lung) | GI50 (SNB-75 CNS) [µM]
O=C(CCc1cc(-c2ccco2)n(-c2ccc([N+](=O)[O-])cc2[N+](=O)[O-])n1)Nc1ccccc1 | > 100 µM | > 100 µM | > 100 µM | > 100 µM | > 100 µM | > 100 | > 100 | > 100 µM | > 100 µM |  |  |  |  |  |  |  |  | 
COC(=O)c1cc(O)ccc1NC(=O)c1ccc(O)cc1 | > 100 µM | > 100 µM | > 100 µM | > 100 µM | > 100 µM | > 100 | > 100 | > 100 µM | > 100 µM |  |  |  |  |  |  |  |  | 
Cc1ccccc1C(C#N)/C(=N/NC(=O)C(=O)NN)C(=O)Nc1cccc(C(F)(F)F)c1 (centres undefined) | > 100 µM | > 100 µM | > 100 µM | > 100 µM | > 100 µM | > 100 | > 100 | > 100 µM | > 100 µM |  |  |  |  |  |  |  |  | 
[O-][N+]1=C(c2ccccc2)COc2ccccc21 | > 100 µM | > 100 µM | > 100 µM | > 100 µM | > 100 µM | > 100 | > 100 | > 100 µM | > 100 µM |  |  |  |  |  |  |  |  | 
O=c1[nH]c(C2CCCCC2)nc2cc(Cl)ccc12 | > 100 µM |  | > 100 µM | > 100 µM | > 100 µM |  | > 100 | > 100 µM | > 100 µM |  |  |  |  |  |  |  |  | 
COC(=O)/C(Cl)=C1/CC1COCc1ccccc1 (centres undefined) | > 100 µM | 31.2 µM | > 100 µM | > 100 µM | > 100 µM | 45.8 | > 100 | 88.2 µM | > 100 µM |  |  |  |  |  |  |  |  | 
C/C(CN1C(=O)c2ccccc2C1=O)=N\NS(C)(=O)=O | > 100 µM | > 100 µM | > 100 µM | > 100 µM | > 100 µM | > 100 | > 100 | > 100 µM | > 100 µM |  |  |  |  |  |  |  |  | 
Cn1cc(C2=C(c3cccc(NCC(O)CO)c3)C(=O)NC2=O)c2cc(Cl)ccc21 (centres undefined) | 17.4 µM | 18.4 µM | 19.6 µM | 10.5 µM | 15.1 µM |  |  | 13.3 µM | 9.55 µM | 5.08 µM | 6.59 | 7.28 | 4.46 µM | 5.58 µM | > 19.3 µM | 5.62 µM | 4.64 µM | 3.45
COC(=O)C1CCc2nnc(-c3cccnc3)n21 (centres undefined) | > 100 µM | > 100 µM | > 100 µM | > 100 µM | > 100 µM | > 100 | > 100 |  | > 100 µM |  |  |  |  |  |  |  |  | 
O=C(Nc1cc(Cl)cc(Cl)c1)c1ccc(NC2=C(Cl)C(=O)N(Cc3ccccc3)C2=O)cc1 | 6.32 µM | 24.2 µM | > 100 µM | 7.46 µM | 3.32 µM |  |  | 16.3 µM | 74.5 µM | 2.62 µM | 9.37 | 41.7 | 2.55 µM | 0.96 µM | 6.91 µM | 1.57 µM | 4.16 µM | 35.4
Clc1cccc(Cc2cn3cc(-c4ccccc4)nc3s2)c1 | > 100 µM | > 100 µM | > 100 µM | > 100 µM | > 100 µM |  |  | 98.9 µM | 76.7 µM | 20.5 µM | 0.84 | 8.92 | 12.8 µM | 17.7 µM | > 100 µM | 5.36 µM | 9.07 µM | 21.2
C/C(CC(=O)Nc1ccc([N+](=O)[O-])cc1)=N/N=C(N)N | > 100 µM | > 100 µM |  | > 100 µM | > 100 µM | > 100 | > 100 | > 100 µM | > 100 µM |  |  |  |  |  |  |  |  | 
O=C1CSc2ccncc2N1 | > 100 µM | > 100 µM | > 100 µM | > 100 µM | > 100 µM | > 100 |  | > 100 µM | > 100 µM |  |  |  |  |  |  |  |  | 
Cc1ccc(S(=O)(=O)NC(=O)Nc2nc(Cl)cc(Cl)n2)cc1 | > 100 µM | > 100 µM | > 100 µM | > 100 µM | > 100 µM | > 100 | > 100 | > 100 µM | > 100 µM |  |  |  |  |  |  |  |  | 
CNC(=S)N/N=C(/C)CCC/C(C)=N/NC(=S)NC | > 100 µM | > 100 µM | > 100 µM | > 88.7 µM | > 100 µM |  |  | > 100 µM | > 100 µM |  |  |  |  |  | > 100 µM |  |  | 
CC(C)(C)C1CCN(C(=O)c2ccccc2)CC1 | > 100 µM | > 100 µM | > 100 µM |  | > 100 µM | > 100 | > 100 | > 100 µM | > 100 µM |  |  |  |  |  |  |  |  | 
CC(C)CC1NC(=O)C(CCCN)NC(=O)C(C(C)C)NC(=O)C2CCCN2C(=O)C(Cc2ccccc2)NC(=O)C(CC(C)C)NC(=O)C(CCCN)NC(=O)C(C(C)C)NC(=O)C2CCCN2C(=O)C(Cc2ccccc2)NC1=O (centres undefined) (cyclo(FPV[Orn]LFPV[Orn]L); configuration not given here) | 0.591 µM and 1.32 µM | 0.609 µM and 1.52 µM | 0.486 µM and 1.38 µM | 0.565 µM and 1.66 µM | 4.69 µM and 3.75 µM |  |  | 0.101 µM and 0.175 µM | 0.149 µM and 0.0637 µM | 0.0113 µM and 0.0252 µM | 0.0101 | < 0.00325 | 0.0168 µM and 0.0594 µM | 0.0184 µM and 0.0529 µM | 1.45 µM and 1.97 µM | 0.18 µM and 0.228 µM | 0.00835 µM and 0.0192 µM | 0.0103
COc1ccc(-c2oncc2-c2cc(OC)c3c(c2)OCO3)cc1 | > 100 µM | > 69.6 µM | > 100 µM | > 100 µM | > 65.7 µM |  |  | > 100 µM | 5.12 µM | 4.86 µM | 2.33 | 5.25 | 7.38 µM | 3.93 µM | > 100 µM | 3.9 µM | 4.94 µM | 1.43
O=S(=O)(c1ccccc1)C1CN(Cc2ccccc2)CCN(Cc2ccccc2)C1 | > 60.3 µM | > 100 µM | > 100 µM | 97.7 µM | > 100 µM | 84.7 |  | > 100 µM | > 100 µM |  |  |  |  |  | > 100 µM |  |  | 
CCCNNC(=O)c1ccc(CNC(=O)/C=C/c2ccccc2)cc1 | > 100 µM | > 100 µM | > 100 µM |  | 1.1 µM |  |  | > 23.5 µM | > 23.5 µM | 0.114 µM | 0.079 | 0.314 | 0.316 µM | 0.218 µM | > 100 µM | 0.185 µM | 0.228 µM | 0.311
